Experimental data: the NIST ThermoML archive (doi:10.1016/j.jct.2004.12.005)

Assays:
[1] = 298.15 K; 101.33 kPa; Liquid
[2] = excess molar enthalpy (molar enthalpy of mixing); xn = mol fraction of the nth substance listed; settings: 298.15 K, 101.3 kPa, Liquid, Flow calorimetry

COC(C)(C)C [2-methoxy-2-methylpropane]
Settings	mass density [kg/m3]
[1]	735.99

COC(C)(C)C [2-methoxy-2-methylpropane] + C1CCOC1
[2]
Settings	excess molar enthalpy [kcal/mol]
x2 = 0.1015	0.0082
x2 = 0.1924	0.0143
x2 = 0.2745	0.0186
x2 = 0.3482	0.0216
x2 = 0.4173	0.0234
x2 = 0.4784	0.0244
x2 = 0.5358	0.0248
x2 = 0.5883	0.0243
x2 = 0.6368	0.0233
x2 = 0.6821	0.0221
x2 = 0.7242	0.0206
x2 = 0.7626	0.0188
x2 = 0.7994	0.0168
x2 = 0.8338	0.0146
x2 = 0.8655	0.0123
x2 = 0.8799	0.0112
x2 = 0.9246	0.00739
x2 = 0.9507	0.00473
x2 = 0.9761	0.00241

CC1CCCO1 (configuration not stated) [2-methyltetrahydrofuran]
Settings	mass density [kg/m3]
[1]	848.1

CC1CCCO1 (configuration not stated) [2-methyltetrahydrofuran] + COC(C)(C)C
[2]
Settings	excess molar enthalpy [kcal/mol]
x1 = 0.0499	0.00159
x1 = 0.0998	0.00298
x1 = 0.1498	0.00424
x1 = 0.2002	0.00541
x1 = 0.2501	0.00635
x1 = 0.3004	0.00717
x1 = 0.3504	0.00788
x1 = 0.4001	0.00821
x1 = 0.4501	0.00859
x1 = 0.5007	0.00875
x1 = 0.5495	0.00884
x1 = 0.5999	0.00859
x1 = 0.6501	0.00815
x1 = 0.7002	0.00753
x1 = 0.7508	0.00673
x1 = 0.8	0.00582
x1 = 0.8509	0.00473
x1 = 0.9	0.00338
x1 = 0.95	0.00184

CCCCCCCCCCCC [dodecane]
Settings	mass density [kg/m3]
[1]	745.38

C1CCOC1 [tetrahydrofuran]
Settings	mass density [kg/m3]
[1]	882.09
